What was measured:
[1] = system: NCI-60 human cancer cell line panel (Homo sapiens); experiment: Anticancer activity against NCI 60 human cancer cell lines assessed as mean cell growth in single dose assay
Staphylococcus aureus = experiment: Antimicrobial activity against Staphylococcus aureus ATCC 25923 after 12 to 18 hrs by 2-fold serial dilution method; type: functional
HT-29 = experiment: Growth inhibition of human HT-29 cells; type: functional
HOP-62 = experiment: Growth inhibition of human HOP62 cells; type: functional
Malme-3M = experiment: Growth inhibition of human MALME-3M cells; type: functional
[2] = Growth inhibition of human EKVX cells; type: functional
MDA-MB-435 = experiment: Growth inhibition of human MDA-MB-435 cells; type: functional
NCI-H226 = experiment: Growth inhibition of human NCI-H226 cells; type: functional
[3] = Growth inhibition of human SF539 cells; type: functional
COLO 205 = experiment: Growth inhibition of human COLO205 cells; type: functional
SW-620 = experiment: Growth inhibition of human SW620 cells; type: functional
NCI-H522 = experiment: Growth inhibition of human NCI-H522 cells; type: functional
[4] = Growth inhibition of human LOXIMVI cells; type: functional; settings: LOX IMVI
SF-268 = experiment: Growth inhibition of human SF268 cells; type: functional
[5] = Growth inhibition of human UACC62 cells; type: functional
A549 = experiment: Growth inhibition of human A549 cells; type: functional
M14 = experiment: Growth inhibition of human M14 cells; type: functional
NCI-H322M = experiment: Growth inhibition of human NCI-H322M cells; type: functional
SNB-19 = experiment: Growth inhibition of human SNB19 cells; type: functional
[6] = Growth inhibition of human HCT15 cells; type: functional
HCT-116 = experiment: Growth inhibition of human HCT116 cells; type: functional
[7] = Growth inhibition of human HOP92 cells; type: functional
SK-MEL-2 = experiment: Growth inhibition of human SK-MEL-2 cells; type: functional
NCI-H460 = experiment: Growth inhibition of human NCI-H460 cells; type: functional
U-251 = experiment: Growth inhibition of human U251 cells; type: functional
[8] = Growth inhibition of human UACC257 cells; type: functional
SK-MEL-28 = experiment: Growth inhibition of human SK-MEL-28 cells; type: functional
[9] = Growth inhibition of human HCC2998 cells; type: functional
SNB-75 = experiment: Growth inhibition of human SNB75 cells; type: functional
[10] = Growth inhibition of human NCI60 cells assessed as cell growth; type: functional; parameters: concentration or dose not given beside the values
KM12 = experiment: Growth inhibition of human KM12 cells; type: functional
NCI-H23 = experiment: Growth inhibition of human NCI-H23 cells; type: functional
[11] = Growth inhibition of human SF295 cells; type: functional; settings: SF-295
[12] = read-out: LC50 (the source's name)

C[n+]1nn(Cc2ccccc2)c2c1C(=O)c1ccccc1C2=O.[Cl-]
Activity [1]: -37.9%
MIC (Staphylococcus aureus): 2 µg/mL

Cc1ccc(-n2n[n+](C)c3c2C(=O)c2ccccc2C3=O)cc1.O=S(=O)([O-])C(F)(F)F
GI50 (HT-29): 2.1 µM
LC50 (HT-29): > 100 µM
GI50 (HOP-62): 2.16 µM
CC50 (HOP-62; [12]): 17.8 µM
GI50 (Malme-3M): 0.32 µM
CC50 (Malme-3M; [12]): 13 µM
GI50 [2]: 4.16 µM
CC50 [2, 12]: 46.8 µM
GI50 (MDA-MB-435): 0.17 µM
CC50 (MDA-MB-435; [12]): 0.6 µM
GI50 (NCI-H226): 2.93 µM
CC50 (NCI-H226; [12]): 36.1 µM
GI50 ([3]; SF-539): 1.97 µM
CC50 ([3]; SF-539, read-out: LC50 (the source's name)): 9.89 µM
GI50 (COLO 205): 0.43 µM
CC50 (COLO 205; [12]): 4.43 µM
MIC (Staphylococcus aureus): 4 µg/mL
GI50 (SW-620): 1.76 µM
CC50 (SW-620; [12]): 19.2 µM
GI50 (NCI-H522): 8.14 µM
CC50 (NCI-H522; [12]): 60 µM
GI50 [4]: 1.8 µM
CC50 [4, 12]: 23 µM
GI50 (SF-268): 3.14 µM
CC50 (SF-268; [12]): 4.43 µM
GI50 ([5]; UACC-62): 1.65 µM
CC50 ([5]; UACC-62, read-out: LC50 (the source's name)): 6.38 µM
GI50 (A549): 1.11 µM
CC50 (A549; [12]): 10 µM
GI50 (M14): 0.26 µM
CC50 (M14; [12]): 3.57 µM
GI50 (NCI-H322M): 0.88 µM
CC50 (NCI-H322M; [12]): 5.38 µM
GI50 (SNB-19): 1.39 µM
LC50 (SNB-19): 5.48 µM
GI50 ([6]; HCT-15): 2.44 µM
CC50 ([6]; HCT-15, read-out: LC50 (the source's name)): 41.2 µM
GI50 (HCT-116): 1.55 µM
CC50 (HCT-116; [12]): 7.92 µM
GI50 ([7]; HOP-92): 0.42 µM
CC50 ([7]; HOP-92, read-out: LC50 (the source's name)): 46.8 µM
GI50 (SK-MEL-2): 2.17 µM
CC50 (SK-MEL-2; [12]): 41.1 µM
GI50 (NCI-H460): 0.33 µM
CC50 (NCI-H460; [12]): 6.13 µM
GI50 (U-251): 2.43 µM
LC50 (U-251): 31.8 µM
GI50 ([8]; UACC-257): 1.85 µM
CC50 ([8]; UACC-257, read-out: LC50 (the source's name)): 17.7 µM
GI50 (SK-MEL-28): 2.65 µM
CC50 (SK-MEL-28; [12]): 36.5 µM
GI50 ([9]; HCC 2998): 1.13 µM
CC50 ([9]; HCC 2998, read-out: LC50 (the source's name)): 5.4 µM
GI50 (SNB-75): 2.09 µM
CC50 (SNB-75; [12]): 8.91 µM
Activity [10]: 11.53%
GI50 (KM12): 1.38 µM
CC50 (KM12; [12]): 13.9 µM
GI50 (NCI-H23): 0.65 µM
CC50 (NCI-H23; [12]): 6.07 µM
GI50 [11]: 1.04 µM
LC50 (concentration killing 50% of cells) [11]: 5.4 µM

CCCCCCCCn1n[n+](C)c2c1C(=O)c1ccccc1C2=O.[Cl-]
Activity [1]: 44.8%
MIC (Staphylococcus aureus): 0.032 µg/mL

Cn1n[n+](C)c2c1C(=O)c1ccccc1C2=O.[Cl-]
Activity [1]: -46%
MIC (Staphylococcus aureus): 2 µg/mL

Reference: ChEMBL document CHEMBL3232814, “Synthesis and anticancer structure activity relationship investigation of cationic anthraquinone analogs” (2014)
